Measurements as given in ChEMBL document CHEMBL1145254, “5-Lipoxygenase inhibitors: convenient synthesis of 4-[3-(4-heterocyclylphenylthio)phenyl]-3,4,5,6-tetrahydro-2H-pyran-4-carboxamide analogues” (Bioorg Med Chem Lett, 2005).

Assays:
[1] = target: T1, Polyunsaturated fatty acid 5-lipoxygenase (Mus musculus) (UniProt P48999); test: Inhibition of 5-lipoxygenase-mediated platelet activating factor induced thrombosis in male mice; format: functional
T1 sequence (whole entry): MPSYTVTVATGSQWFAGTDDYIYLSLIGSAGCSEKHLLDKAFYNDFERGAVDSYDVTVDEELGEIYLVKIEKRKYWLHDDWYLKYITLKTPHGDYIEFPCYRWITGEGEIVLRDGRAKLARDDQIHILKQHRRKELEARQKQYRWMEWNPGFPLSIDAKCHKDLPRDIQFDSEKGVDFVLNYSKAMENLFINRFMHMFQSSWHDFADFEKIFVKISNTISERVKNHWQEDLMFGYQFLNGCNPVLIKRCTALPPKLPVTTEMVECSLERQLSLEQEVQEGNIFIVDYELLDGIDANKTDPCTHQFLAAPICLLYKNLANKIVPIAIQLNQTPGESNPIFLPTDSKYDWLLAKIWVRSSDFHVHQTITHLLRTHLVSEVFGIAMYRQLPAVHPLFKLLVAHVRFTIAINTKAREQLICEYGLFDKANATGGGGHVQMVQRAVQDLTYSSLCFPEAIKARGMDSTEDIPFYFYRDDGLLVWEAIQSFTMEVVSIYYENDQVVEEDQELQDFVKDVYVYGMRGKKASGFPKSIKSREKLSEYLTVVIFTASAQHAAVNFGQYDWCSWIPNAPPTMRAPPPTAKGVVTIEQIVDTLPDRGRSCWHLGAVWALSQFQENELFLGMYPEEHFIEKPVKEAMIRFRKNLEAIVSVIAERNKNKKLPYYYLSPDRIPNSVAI

[2] = target: T2, Polyunsaturated fatty acid 5-lipoxygenase (Homo sapiens, UniProt P09917); test: (§1) Inhibition of 5-lipoxygenase mediated LTB4 synthesis in A-23187 simulated human whole blood; format: functional, tissue-based
T2 sequence (P09917 whole entry): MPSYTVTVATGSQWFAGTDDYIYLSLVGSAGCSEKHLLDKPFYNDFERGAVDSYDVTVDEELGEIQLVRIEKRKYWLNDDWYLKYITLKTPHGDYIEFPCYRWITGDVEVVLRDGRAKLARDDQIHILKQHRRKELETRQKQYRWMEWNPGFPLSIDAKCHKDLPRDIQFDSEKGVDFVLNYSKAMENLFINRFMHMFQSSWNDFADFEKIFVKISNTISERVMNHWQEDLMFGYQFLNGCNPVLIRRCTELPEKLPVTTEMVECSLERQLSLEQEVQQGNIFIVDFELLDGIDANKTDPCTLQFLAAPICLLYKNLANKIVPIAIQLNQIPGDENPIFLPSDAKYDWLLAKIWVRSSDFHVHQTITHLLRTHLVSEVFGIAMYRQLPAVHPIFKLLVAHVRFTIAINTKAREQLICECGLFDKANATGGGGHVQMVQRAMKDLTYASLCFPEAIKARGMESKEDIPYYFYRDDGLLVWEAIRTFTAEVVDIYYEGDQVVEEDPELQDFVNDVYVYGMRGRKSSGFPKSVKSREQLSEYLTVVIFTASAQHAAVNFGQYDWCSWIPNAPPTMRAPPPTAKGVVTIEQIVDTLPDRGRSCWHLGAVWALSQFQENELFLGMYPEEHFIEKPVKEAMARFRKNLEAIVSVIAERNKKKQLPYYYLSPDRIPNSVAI

[3] = target: T3, Polyunsaturated fatty acid 5-lipoxygenase (Homo sapiens) (UniProt P09917); test: Inhibition of 5-lipoxygenase mediated LTB4 synthesis in A-23187 simulated human whole blood at 1 uM concentration; format: functional, tissue-based
T3 sequence (whole entry): T2 sequence (P09917 whole entry)

[4] = target: T3, Polyunsaturated fatty acid 5-lipoxygenase (Homo sapiens); test: as §1; format: functional, tissue-based; conditions: concentration not given here
[5] = target: T3, Polyunsaturated fatty acid 5-lipoxygenase (Homo sapiens); conditions: Blood, 1 uM

ED50 [1] [mg/kg]	IC50 [2] [nM]	inhibition [3] [%]	inhibition [4] [%]	inhibition [5] [%]	Compound
3.7	230	–	–	–	Cc1nccn1-c1ccc(Sc2cccc(C3(C(N)=O)CCOCC3)c2)cc1
3	270	–	–	–	NC(=O)C1(c2cccc(Sc3ccc(Cn4cccc4)cc3)c2)CCOCC1
–	> 1000	1	–	–	NC(=O)C1(c2cccc(Sc3ccc(-n4cnnc4)cc3)c2)CCOCC1
7	830	–	–	–	Cc1nccn1-c1ccc(Sc2cccc([C@]3(C(N)=O)CC4CC[C@H](C3)O4)c2)cc1
–	> 1000	–	-1	–	Cc1cc(C)n(-c2ccc(Sc3cccc(C4(C(N)=O)CCOCC4)c3)cc2)n1
> 20	140	–	–	–	Cc1nccn1Cc1ccc(Sc2cccc(C3(C(N)=O)CCOCC3)c2)cc1
2	150	–	–	–	CO/N=C/C1(c2cccc(Sc3ccc(-n4ccnc4C)cc3)c2)CCOCC1
–	> 1000	–	–	-7	Cc1nccn1-c1ccc(Sc2cccc(C3(C(N)=O)CC4CCC(C3)O4)c2)cc1 (stereo unspecified)
